From patent US10576050B2, “Methods and compositions for treatment of cancer” (ONCONOVA THERAPEUTICS, INC., priority 2012, dated 2020)
Several values for one entry are separate records, joined by “and”; a condition that tells them apart may be missing. Identical values can stand only once.

Key:
[1] = Phase 1 dose escalation study of oral ON 01910.Na in MDS patients refractory to ESA, lenalidomide and DNA methyltransferase inhibitors
Protocol: FIG. 1: Safety and efficacy of Rigosertib (ON 01910.Na) was determined in a dose escalation study in MDS patients refractory to ESA, lenalidomide and DNA Methyltransferase inhibitors. ESA was allowed as concomitant medication. The drug dose was escalated based on a defined escalation dose scheme (70 mg, 140 mg, 280 mg, 560 mg, and 700 mg). Three patients were treated with single escalating weekly doses of oral Rigosertib to determine the oral absorption of Rigosertib.
FIG. 3: The oral absorption and tolerability of Rigosertib administered as single weekly escalating doses in a fasting state were determined in 3 patients. All 3 patients received a 70 mg single oral dose and blood samples for pharmacokinetic analyses were obtained. In the absence of drug-related grade ≥2 toxicity, single dosing was escalated weekly in each patient to 140 mg (week 2), 280 mg (week 3), 560 mg (week 4) and 700 mg (week 5).
FIG. 4: This is a waterfall plot of 8 patients broken down by French American British classification (FAB) as either Refractory Anemia with Excess Blasts-1 (RAEB-1) or RAEB-2. […] The dosage level of each patient is also provided, as well as the patient history of treatment with Azacytidine. The bone marrow blast reduction is measures as a function of FAB classification, dosage and prior treatment with hypomethylating agents.
FIG. 10: Transfusion independence. […] Transfusion independence (TI) defined by absence of RBC transfusion for at least 8 consecutive weeks. Erythroid Response (ER) defined by reduction of at least 4 RBC transfusions/8 weeks compared to pretreatment transfusion number in the previous 8 weeks (RBC Tx for Hb<9.0 g/dL).
Each bar represents one patient. 12 individual MDS patients all categorized as low to intermediate-1 risk (International Prognostic Scoring System—IPSS) and transfusion dependent are shown. […] The decrease in transfusion requirement is plotted for each patient. The absolute differences in red blood cell (RBC) units versus pre-treatment needs are provided.
A total of 16 patients are plotted against their percentage reduction in need for red blood cell transfusions after treatment versus their pre-treatment needs.
Safety and efficacy of a novel oral formulation of ON 01910.Na were determined in a dose escalation study in MDS patients refractory to ESA, lenalidomide and DNA Methyltransferase inhibitors.
ESA was allowed as concomitant medication. The drug dose was escalated based on a defined escalation dose scheme (70, 140, 280, 560, and 700 mg). The drug was administered orally twice a day for 14 days of a 21 day cycle.
Rigosertib (ON 01910.Na) was used in five clinical trials for myelodysplastic syndrome (MDS) in both intravenous and oral formulations.

[2] = Phase II randomized two-arm study of oral Rigosertib (560 mg bid, intermittent or continuous) in transfusion-dependent lower risk MDS patients; conditions: for median duration of treatment: FIG. 5
Protocol: Methods: This is a randomized, two-arm study of oral Rigosertib (560 mg bid) administered either intermittently (2 out of 3 weeks) or continuously. Transfusion-dependent patients received at least 4 units RBC transfusions over 8 weeks before randomization as well as transfusions and erythrocyte stimulating agents (ESAs) while on study.
The study design in low or independent transfusion-dependent MDS patients: 43 patients enrolled and randomized 1:1 in two groups. The first group was administered 560 mg capsules BID in days 1-14 of 21 day cycle. The second group was administered 560 mg capsules BID in days 1-21 of 21 day cycle. […] The protocol was amended for the […] on intermittent dosing.
In these cases 560 mg bid dosing was replaced with 560 mg am (30 min+ before breakfast) and 280 mg 2 hs+ after lunch and 30 min+ before dinner. Dysuria questionnaire (American Urological Association) was provided to all patients at baseline, 3 weeks and every 3 cycles thereafter and recommend for vigorous hydration and bicarbonate prn.
The ongoing phase II trial 09-05 is designed to evaluate oral Rigosertib as a single agent in transfusion-dependent lower risk MDS patients. This trial is a randomized, two-arm study of oral Rigosertib (560 mg bid) administered either intermittently (2 out of 3 weeks) or continuously. Transfusion-dependent patients must have received at least 4 units of RBC transfusions over 8 weeks before randomization and can receive transfusions and erythrocyte stimulating agents (ESAs) while on study.

[3] = 8 RAEB-1/RAEB-2 patients, FIG. 4
[4] = individual patients achieving transfusion independence
[5] = 34 patients dosed intermittently
[6] = individual transfusion responders

SMILES: COc1cc(OC)c(/C=C/S(=O)(=O)Cc2ccc(OC)c(NCC(=O)[O-])c2)c(OC)c1.[Na+] [Rigosertib, sodium (E)-2-{2-methoxy-5-[(2′,4′,6′-trimethoxystyrylsulfonyl)methyl]phenylamino}acetate]
- patients with dose limiting toxicity (DLT) during first 3-week cycle ([1]; 700 mg dose level, dysuria and shortness of breath): One
- patients responding (bone marrow blast reduction) [1, 3]: 6 of 8
- patients with bone marrow complete response (BM CR) [1, 3]: 2
- patients showing decrease in transfusion dependence based on RBC requirement (absolute differences) ([1]; 12 low to intermediate-1 risk transfusion dependent MDS patients, oral, 8 weeks, FIG. 13): 3 of 12
- patients showing decrease in transfusion dependence based on decrease in percentage of RBC requirement ([1]; 16 patients, FIG. 14): 5 of 16
- tolerability of oral formulation ([1]; 70-700 mg orally twice a day, 14 days of a 21 day cycle): well tolerated
- # Units/56 ds Trt ([1]; RBC units per 56 days of treatment, individual patients): 8.0 and 10.5 (2×) and 3.2 and 3.1 and 0.3 (2×) and 4.4 and 11.6 (2×) and 7.1 and 2.0 and 4.3 and 2.9 and 4.9 and 6.4
- % Reduction ([1]; RBC units vs pre-treatment, individual patients): 100% and 74% and −68% and −49% and −87% and −45% and −88% and 44% and −41% and −50% and 5% and −29% and −52% and −18% and 7% and −3%
- # Units during Trt ([1]; RBC units, individual patients, one table row per patient): 2 (4×) and 17 and 10 and 16 (3×) and 13 and 4 (4×) and 21 and 8
- safe and efficacious dose ([1]; bid, oral, 14 days of a 21 day cycle): 560 mg
- TX response ([1]; individual Low-Int-1 risk transfusion dependent MDS patients, 560 or 700 mg bid, one table row per patient): No
- Duration Tx indep [1, 4]: 16 and 47+ (2×) and 8
- Onset Tx indep week [1, 4]: 10 and 7 and 6 and 3
- Cmax as a function of dose ([1]; single weekly escalating oral doses 70-700 mg, fasting, 3 patients): increased linearly
- Red RBC Units ([1]; units/56 days on treatment vs units in 56 days pre-treatment, individual patients): 4.0 and 4.5 and −6.8 and −2.9 and −3.7 and −3.6 and −5.7 and 3.6 and −4.9 and −2.0 and 0.5 and −1.7 and −3.1 and −1.1 and 0.4 and −0.4
- overall tolerability of oral Rigosertib ([2]; 560 mg bid): well tolerated
- patients achieving TI, intent-to-treat analysis ([2]; 14/39 patients, intermittent dosing): 36%
- patients achieving transfusion independence ([2]; 15 patients treated with intermittent dosing for at least 8 weeks): 47%
- median duration of transfusion independence ([2]; 15 responders, intermittent dosing (conclusion)): 17 weeks
- patients achieving TI, intent-to-treat analysis ([2]; 17/48 patients (conclusion)): 35%
- patients with transfusion independence ([2]; 26 evaluable patients (8 wks+ treatment), intermittent 560 mg bid, FIG. 9): 50% and 46%
- Abdominal Pain/discomfort, GRADE 2 incidents [2, 5]: 1
- Abdominal Pain/discomfort, GRADE 3 incidents [2, 5]: 0
- Abdominal Pain/discomfort, TOTAL % [2, 5]: 3%
- Diarrhea, GRADE 2 incidents [2, 5]: 1
- Diarrhea, GRADE 3 incidents [2, 5]: 0
- Diarrhea, TOTAL % [2, 5]: 3%
- Fatigue, GRADE 2 incidents [2, 5]: 5
- Fatigue, GRADE 3 incidents [2, 5]: 0
- Fatigue, TOTAL % [2, 5]: 15%
- Hematuria or Cytitis, GRADE 2 incidents [2, 5]: 1
- Hematuria or Cytitis, GRADE 3 incidents [2, 5]: 5
- Hematuria or Cytitis, TOTAL % [2, 5]: 18%
- Insomnia, GRADE 2 incidents [2, 5]: 1
- Insomnia, GRADE 3 incidents [2, 5]: 0
- Insomnia, TOTAL % [2, 5]: 3%
- Nausea, GRADE 2 incidents [2, 5]: 3
- Nausea, GRADE 3 incidents [2, 5]: 0
- Nausea, TOTAL % [2, 5]: 9%
- Neutropenia, GRADE 2 incidents [2, 5]: 2
- Neutropenia, GRADE 3 incidents [2, 5]: 2
- Neutropenia, TOTAL % [2, 5]: 6%
- Urinary urgency, GRADE 2 incidents [2, 5]: 12
- Urinary urgency, GRADE 3 incidents [2, 5]: 0
- Urinary urgency, SAE [2, 5]: 1
- Urinary urgency, TOTAL % [2, 5]: 35%
- patients achieving transfusion independence ([2]; 36 patients on intermittent dosing treated for at least 8 consecutive weeks): 39%
- Responders (overall transfusion response) ([2]; Continuous regimen): 2
- Responders (overall transfusion response) ([2]; Intermittent regimen): 13
- Responders (overall transfusion response) ([2]; Total): 15
- patients with grade 2+ urinary side effects ([2]; continuous dosing arm): 5 of 9
- median duration of treatment ([2]; continuous dosing, 9 patients): 24 weeks
- patients achieving transfusion independence ([2]; continuous dosing, nine patients (8 treated for at least 8 weeks)): two
- patients progressed ([2]; four evaluable RAEB patients): one
- patients achieving bone marrow complete response according to IWG 2006 criteria ([2]; four evaluable RAEB patients, one unconfirmed): three
- Response (bone marrow, IWG 2006 criteria) ([2]; individual RAEB-1/RAEB-2 patients): BMCR (2×) and BMCRu
- Response week Duration (transfusion independence) [2, 6]: ≥ 48 weeks and ≥ 37 weeks and 17 weeks and 37+ weeks and 9 weeks and 28 weeks and 30 weeks and 8 weeks and 17+ weeks and 12 weeks and 14+ weeks and 48+ weeks
- Response week Onset (transfusion response) [2, 6]: 1 weeks (8×) and 24 weeks and 14 weeks and 4 weeks and 19 weeks and 13 weeks
- patients with urinary grade 2+ toxicity ([2]; intermittent dosing with option of dose interruption/reduction): 4/20
- median duration of treatment ([2]; intermittent dosing, 34 patients): not reached
- patients achieving transfusion independence ([2]; intermittent dosing, at least 8 consecutive weeks, 15 patients (conclusion)): 45%
- interaction between Rigosertib and ESA ([2]; lower-risk transfusion dependent MDS, concomitant ESA): synergy
- patients developing grade 2 urinary toxicity ([2]; twelve patients, 560 mg AM and 280 mg PM, median 6 weeks): one
- Bone marrow blast values ([2]; week 15 follow-up, individual RAEB-1/RAEB-2 patients): 4% and 10% and 77% and 3%
- Bone marrow blast values ([2]; week 30 follow-up, individual RAEB-1/RAEB-2 patients): 4% and 9%
- Bone marrow blast values ([2]; week 45 follow-up, individual RAEB-1/RAEB-2 patients): 5%
- Bone marrow blast values ([2]; week 60 follow-up, individual RAEB-1/RAEB-2 patients): 5%
